The experiment concerns p-IKKa levels in L363 (NIK translocated multiple myeloma) cells. In words: Assay 2: Effect of compounds on p-IKKa levels in L363 (NIK translocated multiple myeloma) cells. It counts as cell-based. As to conditions: Homo sapiens, L-363, 6 h, read-out: Assay 2 IC50 (nM), p-IKKa (Ser 176/180) in BAFF stimulated L363 cells with MG132, 6 h; average if tested more than once. An outline of the steps:
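L363 cells incubated overnight ± 250 ng/ml BAFF, then 6 h at 37 °C with compound (0.3% DMSO) ± 10 μM MG132. Lysates assayed for p-IKKa (Ser176/180) by AlphaLISA SureFire. IC50 from sigmoidal fit of % inhibition normalized to BAFF/MG132-stimulated and unstimulated controls.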

This note sets out measurements from US20250282768A1 (Janssen Pharmaceutica NV, priority 2022, published 2025).

With `CN1CC[C@@](O)(c2cc(-c3cccc(-c4ccnc(NC5(C6CC6)CC5)n4)n3)no2)C1=O` [Example 443, (R)-3-(3-(6-(2-([1,1′-Bi(cyclopropan)]-1-ylamino)pyrimidin-4-yl)pyridin-2-yl)isoxazol-5-yl)-3-hydroxy-1-methylpyrrolidin-2-one], the IC50 lay within 50 to 500 nM.

For `CN1CC[C@@](O)(c2cc(-c3cccc(-c4ccnc(Nc5cnn6c5OCC(C)(C)C6)n4)n3)no2)C1=O` [Example 444, (R)-3-(3-(6-(2-((6,6-Dimethyl-6,7-dihydro-5H-pyrazolo[5,1-b][1,3]oxazin-3-yl)amino)pyrimidin-4-yl)pyridin-2-yl)isoxazol-5-yl)-3-hydroxy-1-methylpyrrolidin-2-one], the IC50 is less than 50 nM.

`CN1CC[C@@](O)(c2cc(-c3cccc(-c4ccnc(NC5CC(C(F)(F)F)C5)n4)n3)no2)C1=O` (stereo partly drawn) [Example 445, (R)-3-Hydroxy-1-methyl-3-(3-(6-(2-((3-(trifluoromethyl)cyclobutyl)amino)pyrimidin-4-yl)pyridin-2-yl)isoxazol-5-yl)pyrrolidin-2-one]: the IC50 is more than 500 nM.

On to `CN1CC[C@@](O)(c2cc(-c3cccc(-c4ccnc(NC5CSC5)n4)n3)no2)C1=O` [Example 446, (R)-3-Hydroxy-1-methyl-3-(3-(6-(2-(thietan-3-ylamino)pyrimidin-4-yl)pyridin-2-yl)isoxaozl-5-yl)pyrrolidin-2-one], for which the IC50 was 50 to 500 nM.

Take `CN1CC[C@@](O)(c2cc(-c3cccc(-c4ccnc(NC5CCN(S(=O)(=O)C6CC6)CC5)n4)n3)no2)C1=O` [Example 447, (R)-3-(3-(6-(2-((1-(Cyclopropylsulfonyl)piperidin-4-yl)amino)pyrimidin-4-yl)pyridin-2-yl)isoxazol-5-yl)-3-hydroxy-1-methylpyrrolidin-2-one]: the IC50 was in the range of 50 to 500 nM.

Take `CO[C@@H]1CCC[C@H](Nc2nccc(-c3cccc(-c4cc([C@]5(O)CCN(C)C5=O)on4)n3)n2)C1` [Example 449, (R)-3-Hydroxy-3-(3-(6-(2-(((1S,3R)-3-methoxycyclohexyl)amino)pyrimidin-4-yl)pyridin-2-yl)isoxazol-5-yl)-1-methylpyrrolidin-2-one]: the IC50 fell in the range of 50 to 500 nM.

As for `CN1CC[C@@](O)(c2cc(-c3cccc(-c4ccnc(N[C@H]5CCC[C@@H](O)C5)n4)n3)no2)C1=O` [Example 450, (R)-3-Hydroxy-3-(3-(6-(2-(((1S,3R)-3-hydroxycyclohexyl)amino)pyrimidin-4-yl)pyridin-2-yl)isoxazol-5-yl)-1-methylpyrrolidin-2-one], the IC50 lay within 50 to 500 nM.

`CN1CC[C@@](O)(c2cc(-c3cccc(-c4ccnc(NC5CCC(C(F)(F)F)CC5)n4)n3)no2)C1=O` (stereo partly drawn) [Example 451, (R)-3-Hydroxy-1-methyl-3-(3-(6-(2-((4-(trifluoromethyl)cyclohexyl)amino)pyrimidin-4-yl)pyridin-2-yl)isoxazol-5-yl)pyrrolidin-2-one]: the IC50 is more than 500 nM.

Regarding `CN1CC[C@@](O)(c2cc(-c3cccc(-c4ccnc(NC5CCOCC5)n4)n3)no2)C1=O` [Example 452, (R)-3-Hydroxy-1-methyl-3-(3-(6-(2-((tetrahydro-2H-pyran-4-yl)amino)pyrimidin-4-yl)pyridin-2-yl)isoxazol-5-yl)pyrrolidin-2-one], the IC50 lay within 50 to 500 nM.

`CN1CC[C@@](O)(c2cc(-c3cccc(-c4ccnc(NC5CCC5)n4)n3)no2)C1=O` [Example 453, (R)-3-(3-(6-(2-(Cyclobutylamino)pyrimidin-4-yl)pyridin-2-yl)isoxazol-5-yl)-3-hydroxy-1-methylpyrrolidin-2-one]: the IC50 was 50 to 500 nM.

In the case of `CN1CC[C@@](O)(c2cc(-c3cccc(-c4ccnc(N[C@H]5CCCOC5)n4)n3)no2)C1=O` [Example 454, (R)-3-Hydroxy-1-methyl-3-(3-(6-(2-(((S)-tetrahydro-2H-pyran-3-yl)amino)pyrimidin-4-yl)pyridin-2-yl)isoxaozl-5-yl)pyrrolidin-2-one], the IC50 lay within 50 to 500 nM.

For `CN1CC[C@@](O)(c2cc(-c3cccc(-c4ccnc(N[C@@H]5CCCOC5)n4)n3)no2)C1=O` [Example 455, (R)-3-Hydroxy-1-methyl-3-(3-(6-(2-(((R)-tetrahydro-2H-pyran-3-yl)amino)pyrimidin-4-yl)pyridin-2-yl)isoxazol-5-yl)pyrrolidin-2-one], the IC50 was more than 500 nM.

Turning to `CN1CC[C@@](O)(c2cc(-c3cccc(-c4ccnc(N[C@@H]5CCOC5)n4)n3)no2)C1=O` [Example 460, (R)-3-Hydroxy-1-methyl-3-(3-(6-(2-(((R)-tetrahydrofuran-3-yl)amino)pyrimidin-4-yl)pyridin-2-yl)isoxazol-5-yl)pyrrolidin-2-one], the IC50 fell in the range of 50 to 500 nM.

Consider `CNC(=O)c1cc(Nc2nccc(-c3cccc(-c4cc([C@]5(O)CCN(C)C5=O)on4)n3)n2)nn1C(C)C` [Example 464, (R)-3-((4-(6-(5-(3-Hydroxy-1-methyl-2-oxopyrrolidin-3-yl)isoxazol-3-yl)pyridin-2-yl)pyrimidin-2-yl)amino)-1-isopropyl-N-methyl-1H-pyrazole-5-carboxamide], for which the IC50 was less than 50 nM.

Regarding `CN1CC[C@@](O)(c2cc(-c3cccc(-c4ccnc(NCC5(O)CC5)n4)n3)no2)C1=O` [Example 466, (R)-3-Hydroxy-3-(3-(6-(2-(((1-hydroxycyclopropyl)methyl)amino)pyrimidin-4-yl)pyridin-2-yl)isoxazol-5-yl)-1-mehtylpyrrolidin-2-one], the IC50 was more than 500 nM.

Consider `CN1CCn2nc(Nc3nccc(-c4cccc(-c5cc([C@]6(O)CCN(C)C6=O)on5)n4)n3)cc2C1=O` [Example 467, (R)-2-((4-(6-(5-(3-Hydroxy-1-methyl-2-oxopyrrolidin-3-yl)isoxazol-3-yl)pyridin-2-yl)pyrimidin-2-yl)amino)-5-methyl-6,7-dihydropyrazolo[1,5-a]pyrazin-4(5H)-one], for which the IC50 is 50 to 500 nM.

As for `CN1CC[C@@](O)(c2cc(-c3cccc(-c4ccnc(Nc5cnc6c(c5)COCC6)n4)n3)no2)C1=O` [Example 468, (R)-3-(3-(6-(2-((7,8-Dihydro-5H-pyrano[4,3-b]pyridin-3-yl)amino)pyrimidin-4-yl)pyridin-2-yl)isoxazol-5-yl)-3-hydroxy-1-methylpyrrolidin-2-one], the IC50 was less than 50 nM.

For the compound `COC1CCC(Nc2nccc(-c3cccc(-c4cc([C@]5(O)CCN(C)C5=O)on4)n3)n2)CC1` (stereo partly drawn) [Example 469, (R)-3-Hydroxy-3-(3-(6-(2-((4-methoxycyclohexyl)amino)pyrimidin-4-yl)pyridin-2-yl)isoxazol-5-yl)-1-methylpyrrolidin-2-one], the IC50 is more than 500 nM.

For the compound `CCS(=O)(=O)N1CCC(Nc2nccc(-c3cccc(-c4cc([C@]5(O)CCN(C)C5=O)on4)n3)n2)CC1` [Example 470, (R)-3-(3-(6-(2-((1-(Ethylsulfonyl)piperidin-4-yl)amino)pyrimidin-4-yl)pyridin-2-yl)isoxazol-5-yl)-3-hydroxy-1-methylpyrrolidin-2-one], the IC50 was less than 50 nM.

With `Cc1ncc(C#N)cc1Nc1nccc(-c2cccc(-c3cc([C@]4(O)CCN(C)C4=O)on3)n2)n1` [Example 471, (R)-5-((4-(6-(5-(3-Hydroxy-1-methyl-2-oxopyrrolidin-3-yl)isoxazol-3-yl)pyridin-2-yl)pyrimidin-2-yl)amino)-6-methylnicotinonitrile], the IC50 is less than 50 nM.

For `CNC(=O)c1cnc(C)c(Nc2nccc(-c3cccc(-c4cc([C@]5(O)CCN(C)C5=O)on4)n3)n2)c1` [Example 473, (R)-5-((4-(6-(5-(3-Hydroxy-1-methyl-2-oxopyrrolidin-3-yl)isoxazol-3-yl)pyridin-2-yl)pyrimidin-2-yl)amino)-N,6-dimethylnicotinamide], the IC50 was in the range of 50 to 500 nM.

For the compound `CN1CC[C@@](O)(c2cc(-c3cccc(-c4ccnc(Nc5cnc6c(c5)CCCO6)n4)n3)no2)C1=O` [Example 474, (R)-3-(3-(6-(2-((3,4-Dihydro-2H-pyrano[2,3-b]pyridin-6-yl)amino)pyrimidin-4-yl)pyridin-2-yl)isoxazol-5-yl)-3-hydroxy-1-methylpyrrolidin-2-one], the IC50 is less than 50 nM.

Take `COCc1cc(Nc2nccc(-c3cccc(-c4cc([C@]5(O)CCN(C)C5=O)on4)n3)n2)nn1C` [Example 475, (R)-3-Hydroxy-3-(3-(6-(2-((5-(methoxymethyl)-1-methyl-1H-pyrazol-3-yl)amino)pyrimidin-4-yl)pyridin-2-yl)isoxazol-5-yl)-1-methylpyrrolidin-2-one]: the IC50 is less than 50 nM.

For `CN1CC[C@@](O)(c2cc(-c3cccc(-c4ccnc(NC5CCN(S(C)(=O)=O)CC5)n4)n3)no2)C1=O` [Example 476, (R)-3-Hydroxy-1-methyl-3-(3-(6-(2-((1-(methylsulfonyl)piperidin-4-yl)amino)pyrimidin-4-yl)pyridin-2-yl)isoxazol-5-yl)pyrrolidin-2-one], the IC50 was in the range of 50 to 500 nM.
